Test results as given in US20240400507A1, “Substituted Indole Compounds and the Use Thereof” (TROBIO THERAPEUTICS PTY LTD, priority 2021, published 2024).
Entries after “also recorded” stand apart in the source; their conditions may differ.

How the values were obtained:
[1] = biological target: T1, Tpm4.2-containing actin microfilaments (Mus musculus, UniProt Q6IRU2); assay: Disruption of Tpm4.2-containing actin microfilaments in PMEF cells, images assessed visually; type: cell-based; settings: PMEF cells stably expressing Tpm4.2 labelled with the NeonGreen fluorophore (footnote a)
T1 construct: investigated in primary mouse embryonic fibroblast (PMEF) cells; endogenous in cells; host or cells: primary mouse embryonic fibroblast (PMEF) cells

[2] = biological target: T1, Tpm4.2-containing actin microfilaments; assay: as above; type: cell-based; settings: for Filament Disruption (minimum test concentration at which filament disruption was observed): primary mouse embryonic fibroblast (PMEF) cells, 24 hours treatment, anti-tropomyosin antibody staining of Tpm4.2
Experimental: Example 2—Anti-tropomyosin activity of compounds of formula (I) The ability of compounds of the disclosure to disrupt Tpm4.2-containing actin microfilaments was investigated in primary mouse embryonic fibroblast (PMEF) cells. Cells were seeded at 3×10^4 cells per well in a volume of 1000 μL complete media onto a 12 well plate containing 13 mm coverslips and left to plate down for 24 hours prior to treatment. Cells were then treated with DMSO and two concentrations of the test compounds. 24 hours post-treatment, cells were fixed with 16% paraformaldehyde (PBS) and stained with rabbit polyclonal anti-tropomyosin 6/9d antibody to visualise Tpm4.2. Single plane images were obtained using the Olympus IX83 epi-fluorescence microscope. Ten fields of view were collected for both Tpm4.2 fluorophore and 488-Atto-Phalloidin with each treatment condition. The images were assessed visually to determine if the Tpm4.2 filament network had been disrupted under the treatment condition (Table 1).

T1 sequence (Q6IRU2 whole entry): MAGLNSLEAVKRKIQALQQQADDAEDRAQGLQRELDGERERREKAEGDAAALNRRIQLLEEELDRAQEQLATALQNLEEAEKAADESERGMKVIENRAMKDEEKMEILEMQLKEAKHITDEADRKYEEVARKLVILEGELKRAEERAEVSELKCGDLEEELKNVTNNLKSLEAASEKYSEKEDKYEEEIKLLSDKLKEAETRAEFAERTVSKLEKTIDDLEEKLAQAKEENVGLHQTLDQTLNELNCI

| Compound | Filament Disruption (minimum test concentration at which filament disruption was observed) [2] [µM] | other results |
| --- | --- | --- |
| CC(CO)(CO)NCCn1ccc2ccc(OCCc3ccccc3)cc21 [Compound 1, 2-((2-(6-phenethoxy-1H-indol-1-yI)ethyl)amino)-2-methylpropane-1,3-diol] |  | Filament Disruption (minimum test concentration at which filament disruption was observed) [1]: 4.0^a μM |
| CC(CO)(CO)NCCn1ccc2ccc(OCCc3ccccc3F)cc21 [Compound 2, 2-((2-(6-(2-fluorophenethoxy)-1H-indol-1-yl)ethyl)amino)-2-methylpropane-1,3-diol] |  | Filament Disruption (minimum test concentration at which filament disruption was observed) [1]: 4.0^a μM |
| CC(CO)(CO)NCCn1ccc2ccc(OCCc3cccc(F)c3)cc21 [Compound 3, 2-((2-(6-(3-fluorophenethoxy)-1H-indol-1-yl)ethyl)amino)-2-methylpropane-1,3-diol] |  | Filament Disruption (minimum test concentration at which filament disruption was observed) [1]: 4.0^a μM |
| CC(CO)(CO)NCCn1ccc2ccc(OCCc3ccc(F)cc3)cc21 [Compound 4, 2-((2-(6-(4-fluorophenethoxy)-1H-indol-1-yl)ethyl)amino)-2-methylpropane-1,3-diol] |  | Filament Disruption (minimum test concentration at which filament disruption was observed) [1]: 3.0^a μM |
| CC(C)(CO)NCCn1ccc2ccc(OCCc3ccc(F)cc3)cc21 [Compound 5, 2-((2-(6-(4-fluorophenethoxy)-1H-indol-1-yl)ethyl)amino)-2-methylpropan-1-ol] | 2.0 |  |
| OCC(CO)NCCn1ccc2ccc(OCCc3ccc(F)cc3)cc21 [Compound 6, 2-((2-(6-(4-fluorophenethoxy)-1H-indol-1-yl)ethyl)amino)propane-1,3-diol] | 4.0 |  |
| C[C@@H](CO)NCCn1ccc2ccc(OCCc3ccc(F)cc3)cc21 [Compound 7, (S)-2-((2-(6-(4-fluorophenethoxy)-1H-indol-1-yl)ethyl)amino)propan-1-ol] | 2.0 |  |
| C[C@H](CO)NCCn1ccc2ccc(OCCc3ccc(F)cc3)cc21 [Compound 8, (R)-2-((2-(6-(4-fluorophenethoxy)-1H-indol-1-yl)ethyl)amino)propan-1-ol] | 2.0 |  |
| OCCNCCn1ccc2ccc(OCCc3ccc(F)cc3)cc21 [Compound 9, 2-((2-(6-(4-fluorophenethoxy)-1H-indol-1-yl)ethyl)amino)ethan-1-ol] | 4.0 |  |
| CC(C)(C)NCCn1ccc2ccc(OCCc3ccc(F)cc3)cc21 [Compound 10, N-(2-(6-(4-fluorophenethoxy)-1H-indol-1-yl)ethyl)-2-methylpropan-2-amine] | 2.0 |  |
| Fc1ccc(CCOc2ccc3ccn(CCCN4CCOCC4)c3c2)cc1 [Compound 11, 4-(3-(6-(4-fluorophenethoxy)-1H-indol-1-yl)propyl)morpholine] | 20 |  |
| COCC(C)(COC)NCCn1ccc2ccc(OCCc3ccc(F)cc3)cc21 [Compound 12, N-(2-(6-(4-fluorophenethoxy)-1H-indol-1-yl)ethyl)-1,3-dimethoxy-2-methylpropan-2-amine] | 9.0 |  |
| CC(CO)(CO)NCCn1ccc2ccc(NCCc3ccc(F)cc3)cc21 [Compound 13, 2-((2-(6-((4-fluorophenethyl)amino)-1H-indol-1-yl)ethyl)amino)-2-methylpropane-1,3-diol] | 2.0 | Effect on Tpm4.2 filament network in representative image (FIG. 1) ([2]; PMEF cells, treatment versus control condition): parallel filament bundles observed in the control condition are lost and punctate aggregations of Tpm4.2 are observed near the nucleus; also recorded: disruption of the Tpm4.2 filament network |
| CC(CO)(CO)NCCn1ccc2ccc(C(=O)NCc3ccc(F)cc3)cc21 [Compound 14, 1-(2-((1,3-dihydroxy-2-methylpropan-2-yl)amino)ethyl)-N-(4-fluorobenzyl)-1H-indole-6-carboxamide] | 2.0 |  |
| CC(CO)(CO)NCCn1ccc2ccc(C(=O)OCc3ccc(F)cc3)cc21 [Compound 15, 4-fluorobenzyl 1-(2-((1,3-dihydroxy-2-methylpropan-2-yl)amino)ethyl)-1H-indole-6-carboxylate] | 6.5 |  |
| Cc1ccccc1CCOc1ccc2ccn(CCNC(C)(CO)CO)c2c1 [Compound 16, 2-methyl-2-((2-(6-(2-methylphenethoxy)-1H-indol-1-yl)ethyl)amino)propane-1,3-diol] | 7.5 |  |
| Cc1cccc(CCOc2ccc3ccn(CCNC(C)(CO)CO)c3c2)c1 [Compound 17, 2-methyl-2-((2-(6-(3-methylphenethoxy)-1H-indol-1-yl)ethyl)amino)propane-1,3-diol] | 2.0 |  |
| Cc1ccc(CCOc2ccc3ccn(CCNC(C)(CO)CO)c3c2)cc1 [Compound 18, 2-methyl-2-((2-(6-(4-methylphenethoxy)-1H-indol-1-yl)ethyl)amino)propane-1,3-diol] | 5.0 |  |
| COc1ccccc1CCOc1ccc2ccn(CCNC(C)(CO)CO)c2c1 [Compound 19, 2-methyl-2-((2-(6-(2-methoxyphenethoxy)-1H-indol-1-yl)ethyl)amino)propane-1,3-diol] | 7.0 |  |
| COc1cccc(CCOc2ccc3ccn(CCNC(C)(CO)CO)c3c2)c1 [Compound 20, 2-methyl-2-((2-(6-(3-methoxyphenethoxy)-1H-indol-1-yl)ethyl)amino)propane-1,3-diol] | 2.0 |  |
| COc1ccc(CCOc2ccc3ccn(CCNC(C)(CO)CO)c3c2)cc1 [Compound 21, 2-methyl-2-((2-(6-(4-methoxyphenethoxy)-1H-indol-1-yl)ethyl)amino)propane-1,3-diol] | 2.5 |  |
| CC(CO)(CO)NCCn1ccc2ccc(OCCc3ccccc3C(F)(F)F)cc21 [Compound 22, 2-methyl-2-((2-(6-(2-(trifluoromethyl)phenethoxy)-1H-indol-1-yl)ethyl)amino)propane-1,3-diol] | 2.5 |  |
| CC(CO)(CO)NCCn1ccc2ccc(OCCc3ccc(F)c(F)c3)cc21 [Compound 24, 2-methyl-2-((2-(6-(3,4-difluorophenethoxy)-1H-indol-1-yl)ethyl)amino)propane-1,3-diol] | 2.5 |  |
| Cc1ccc(CCOc2ccc3ccn(CCNC(C)(CO)CO)c3c2)cc1C [Compound 25, 2-methyl-2-((2-(6-(3,4-dimethylphenethoxy)-1H-indol-1-yl)ethyl)amino)propane-1,3-diol] | 2.5 |  |
